Experiments:
[1] = Clearance in Sprague-Dawley rat at 0.25 mg/kg, iv measured upto 8 hrs by LC/MS/MS analysis; format: ADME, organism-based; details: in vivo
Homo sapiens [2] = organism: Homo sapiens; experiment: Selectivity index, ratio of inhibition for PI3Kdelta (unknown origin) to inhibition for PI3K p120 gamma (unknown origin) using phosphatidylinositol 4,5-bisphosphate as substrate in presence of ATP incubated for 60 mins by ADP-Glo assay
[3] = Intrinsic clearance in cryopreserved human hepatocytes assessed as per million cells at 0.5 uM by LC-MS/MS analysis; format: ADME, cell-based, Hepatocyte
[4] = target: T1, Phosphatidylinositol 4,5-bisphosphate 3-kinase catalytic subunit gamma isoform (Homo sapiens, UniProt P48736); experiment: Inhibition of PI3K p120gamma (unknown origin) using phosphatidylinositol 4,5-bisphosphate as substrate in presence of ATP incubated for 60 mins by ADP-Glo assay
Homo sapiens [5] = organism: Homo sapiens; experiment: Selectivity index, ratio of inhibition for PI3Kalpha (unknown origin) to inhibition for PI3K p120 gamma (unknown origin) using phosphatidylinositol 4,5-bisphosphate as substrate in presence of ATP incubated for 60 mins by ADP-Glo assay
[6] = target: T1, Phosphatidylinositol 4,5-bisphosphate 3-kinase catalytic subunit gamma isoform; experiment: Inhibition of PI3Kgamma in human THP-1 cells assessed as reduction in Akt phosphorylation at S473 residue incubated for 60 mins measured after 120 mins by alphalisa assay; format: cell-based
[7] = Intrinsic clearance in rat hepatocytes assessed as per million cells; format: ADME, cell-based, Hepatocyte
[8] = Apparent permeability in human Caco2 cells; format: ADME, cell-based; details: Caco-2
[9] = Efflux ratio of permeability in human Caco2 cells; format: ADME, cell-based; details: Caco-2
Cytochrome P450 2C9 = Cytochrome P450 2C9 (Homo sapiens, UniProt P11712); experiment: Inhibition of CYP2C9 (unknown origin) using diclofenac as substrate measured after 5 to 20 mins in presence of NADPH by LC-MS/MS analysis; format: ADME
Cytochrome P450 3A4 = Cytochrome P450 3A4 (Homo sapiens, UniProt P08684); experiment: Inhibition of CYP3A4 (unknown origin) using midazolam as substrate measured after 5 to 20 mins in presence of NADPH by LC-MS/MS analysis; format: ADME
Cytochrome P450 2D6 = Cytochrome P450 2D6 (Homo sapiens, UniProt P10635); experiment: Inhibition of CYP2D6 (unknown origin) using diclofenac as substrate measured after 5 to 20 mins in presence of NADPH by LC-MS/MS analysis; format: ADME
Cytochrome P450 2C19 = Cytochrome P450 2C19 (Homo sapiens, UniProt P33261); experiment: Inhibition of CYP2C19 (unknown origin) using S-mephenytoin as substrate measured after 5 to 20 mins in presence of NADPH by LC-MS/MS analysis; format: ADME
Cytochrome P450 1A2 = target: T2, Cytochrome P450 1A2 (Homo sapiens, UniProt P05177); experiment: Inhibition of CYP1A2 (unknown origin) using phenacetin as substrate measured after 5 to 20 mins in presence of NADPH by LC-MS/MS analysis; format: ADME
T2 sequence (P05177 whole entry): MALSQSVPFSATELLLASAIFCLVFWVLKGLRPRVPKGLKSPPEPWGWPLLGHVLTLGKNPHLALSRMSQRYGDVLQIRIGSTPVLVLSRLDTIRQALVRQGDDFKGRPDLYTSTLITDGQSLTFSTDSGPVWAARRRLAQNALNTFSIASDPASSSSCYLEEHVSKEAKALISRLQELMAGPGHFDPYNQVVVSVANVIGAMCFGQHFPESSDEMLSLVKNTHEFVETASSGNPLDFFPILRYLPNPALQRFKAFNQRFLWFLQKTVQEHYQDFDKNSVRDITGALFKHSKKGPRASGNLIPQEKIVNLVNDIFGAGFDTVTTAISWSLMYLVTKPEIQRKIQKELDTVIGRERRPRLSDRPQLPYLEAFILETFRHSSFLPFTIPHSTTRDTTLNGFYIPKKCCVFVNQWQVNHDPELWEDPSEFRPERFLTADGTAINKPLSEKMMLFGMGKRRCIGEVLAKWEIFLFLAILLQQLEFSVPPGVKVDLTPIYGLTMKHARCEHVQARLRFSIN

T1 sequence (P48736 whole entry, canonical isoform): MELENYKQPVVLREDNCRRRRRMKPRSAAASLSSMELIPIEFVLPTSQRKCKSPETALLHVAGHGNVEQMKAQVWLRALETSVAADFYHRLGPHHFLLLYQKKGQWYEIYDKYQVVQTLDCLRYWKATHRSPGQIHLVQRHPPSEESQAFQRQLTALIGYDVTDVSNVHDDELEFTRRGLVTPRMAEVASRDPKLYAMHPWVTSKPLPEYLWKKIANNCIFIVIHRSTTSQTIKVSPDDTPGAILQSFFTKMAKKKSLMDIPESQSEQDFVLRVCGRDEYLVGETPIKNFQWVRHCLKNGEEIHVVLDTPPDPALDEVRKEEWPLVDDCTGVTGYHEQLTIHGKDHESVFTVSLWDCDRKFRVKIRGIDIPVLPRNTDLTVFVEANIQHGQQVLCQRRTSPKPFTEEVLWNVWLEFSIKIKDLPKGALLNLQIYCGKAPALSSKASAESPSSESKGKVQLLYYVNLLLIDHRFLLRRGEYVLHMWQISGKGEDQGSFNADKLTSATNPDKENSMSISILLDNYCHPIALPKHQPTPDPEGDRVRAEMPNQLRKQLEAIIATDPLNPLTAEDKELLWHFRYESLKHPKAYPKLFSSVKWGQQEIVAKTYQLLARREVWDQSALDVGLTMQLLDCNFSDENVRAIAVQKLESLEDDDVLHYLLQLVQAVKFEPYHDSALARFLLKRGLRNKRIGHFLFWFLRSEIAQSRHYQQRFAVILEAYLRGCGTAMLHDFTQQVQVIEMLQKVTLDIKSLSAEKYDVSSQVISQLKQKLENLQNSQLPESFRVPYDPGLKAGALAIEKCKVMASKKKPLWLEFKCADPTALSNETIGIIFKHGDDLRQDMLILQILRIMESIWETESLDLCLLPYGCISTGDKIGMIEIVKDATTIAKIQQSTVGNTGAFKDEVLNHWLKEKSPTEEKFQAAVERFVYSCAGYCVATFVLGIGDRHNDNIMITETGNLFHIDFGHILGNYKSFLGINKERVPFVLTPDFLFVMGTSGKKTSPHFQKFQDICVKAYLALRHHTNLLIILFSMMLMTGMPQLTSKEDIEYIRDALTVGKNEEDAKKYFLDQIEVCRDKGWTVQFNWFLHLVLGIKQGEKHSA
Chain of Cytochrome P450 2D6 (P10635 whole entry): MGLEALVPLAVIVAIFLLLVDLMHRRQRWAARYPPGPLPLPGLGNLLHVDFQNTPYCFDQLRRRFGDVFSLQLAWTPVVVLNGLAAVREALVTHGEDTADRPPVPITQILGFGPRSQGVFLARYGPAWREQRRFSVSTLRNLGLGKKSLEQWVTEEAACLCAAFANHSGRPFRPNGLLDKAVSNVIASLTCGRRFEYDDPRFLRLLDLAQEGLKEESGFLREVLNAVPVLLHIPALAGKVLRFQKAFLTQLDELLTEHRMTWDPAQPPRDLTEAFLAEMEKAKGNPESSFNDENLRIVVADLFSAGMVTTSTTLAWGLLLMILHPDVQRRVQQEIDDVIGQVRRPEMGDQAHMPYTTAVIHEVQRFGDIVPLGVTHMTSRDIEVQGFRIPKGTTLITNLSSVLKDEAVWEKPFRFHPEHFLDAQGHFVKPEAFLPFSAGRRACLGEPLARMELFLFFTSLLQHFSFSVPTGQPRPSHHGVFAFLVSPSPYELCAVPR
Chain of Cytochrome P450 3A4 (P08684 whole entry): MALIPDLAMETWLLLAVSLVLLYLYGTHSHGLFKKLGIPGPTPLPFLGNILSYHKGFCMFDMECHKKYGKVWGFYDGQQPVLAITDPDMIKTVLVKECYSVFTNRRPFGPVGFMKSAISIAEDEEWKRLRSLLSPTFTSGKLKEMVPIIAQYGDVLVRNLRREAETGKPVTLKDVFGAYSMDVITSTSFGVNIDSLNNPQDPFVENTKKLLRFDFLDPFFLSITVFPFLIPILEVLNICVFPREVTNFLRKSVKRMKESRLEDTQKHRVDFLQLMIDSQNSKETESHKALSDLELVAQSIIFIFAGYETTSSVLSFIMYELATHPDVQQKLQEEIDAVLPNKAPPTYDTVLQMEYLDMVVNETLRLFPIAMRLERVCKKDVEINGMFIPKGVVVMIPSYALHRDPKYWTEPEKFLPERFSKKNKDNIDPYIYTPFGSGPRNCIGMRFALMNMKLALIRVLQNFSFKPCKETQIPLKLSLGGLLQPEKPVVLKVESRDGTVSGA
Chain of Cytochrome P450 2C19 (P33261 whole entry): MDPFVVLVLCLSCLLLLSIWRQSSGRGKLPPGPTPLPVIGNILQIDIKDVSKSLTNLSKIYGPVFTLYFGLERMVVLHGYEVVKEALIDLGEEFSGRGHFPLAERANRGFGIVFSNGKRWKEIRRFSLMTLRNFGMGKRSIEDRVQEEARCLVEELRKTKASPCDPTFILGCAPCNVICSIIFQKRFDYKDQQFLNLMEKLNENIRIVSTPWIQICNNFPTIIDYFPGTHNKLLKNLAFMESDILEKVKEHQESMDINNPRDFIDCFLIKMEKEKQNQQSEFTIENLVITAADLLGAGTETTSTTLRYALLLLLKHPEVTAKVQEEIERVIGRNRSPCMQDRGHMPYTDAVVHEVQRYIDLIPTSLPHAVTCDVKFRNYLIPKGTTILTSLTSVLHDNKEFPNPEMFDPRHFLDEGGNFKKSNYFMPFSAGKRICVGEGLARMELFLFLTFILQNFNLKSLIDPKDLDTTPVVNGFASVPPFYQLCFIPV
Chain of Cytochrome P450 2C9 (P11712 whole entry): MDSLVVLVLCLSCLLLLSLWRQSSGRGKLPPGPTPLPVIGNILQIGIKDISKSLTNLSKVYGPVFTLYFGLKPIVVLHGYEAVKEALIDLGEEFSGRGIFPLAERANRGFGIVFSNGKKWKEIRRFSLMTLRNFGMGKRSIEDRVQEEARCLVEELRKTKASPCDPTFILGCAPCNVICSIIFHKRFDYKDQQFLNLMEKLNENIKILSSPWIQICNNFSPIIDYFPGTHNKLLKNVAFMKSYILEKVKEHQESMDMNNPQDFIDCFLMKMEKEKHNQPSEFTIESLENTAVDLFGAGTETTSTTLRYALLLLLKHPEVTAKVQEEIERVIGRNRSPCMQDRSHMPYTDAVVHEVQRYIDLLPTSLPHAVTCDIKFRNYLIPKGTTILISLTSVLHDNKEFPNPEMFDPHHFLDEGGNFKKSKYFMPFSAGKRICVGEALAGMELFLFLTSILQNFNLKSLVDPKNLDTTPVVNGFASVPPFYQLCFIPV

Row | Structure (SMILES) | clearance [1] | Selectivity ratio (Homo sapiens [2]) | CLH [3] | IC50 [4] | Selectivity ratio (Homo sapiens [5]) | IC50 [6] | CLH [7] | Papp [8] | efflux ratio [9] | IC50 (Cytochrome P450 2C9) | IC50 (Cytochrome P450 3A4) | IC50 (Cytochrome P450 2D6) | IC50 (Cytochrome P450 2C19) | IC50 (Cytochrome P450 1A2)
1 | Cc1cc(-c2c[nH]c3ncc(-c4cc(C)c5c(c4)CN([C@@H](C)C4CC4)C5=O)cc23)ccc1CC(=O)O | 30 mL/min/kg | 397 | 8 µL/min/1e6 cells | 3.3 nM | 539 | 150 nM | 23 µL/min/1e6 cells | – | – | – | – | – | – | –
2 | Cc1cc(-c2c[nH]c3ncc(-c4cc5c(c(C(F)(F)F)c4)C(=O)N([C@@H](C)C4CC4)C5)cc23)cc(C)c1C(=O)O | 467 mL/min/kg | 84 | 1.8 µL/min/1e6 cells | 2.8 nM | 257 | 30 nM | < 1.2 µL/min/1e6 cells | – | – | – | – | – | – | –
3 | C[C@@H](C1CC1)N1Cc2cc(-c3cnc4[nH]cc(-c5ccc(C6(C(=O)O)CC6)cc5)c4c3)cc(C(F)(F)F)c2C1=O | – | 620 | 2.6 µL/min/1e6 cells | 3.6 nM | 742 | 110 nM | 18 µL/min/1e6 cells | – | – | – | – | – | – | –
4 | Cc1cc(-c2c[nH]c3ncc(-c4cc(C)c5c(c4)CN([C@@H](C)C4CC4)C5=O)cc23)ccc1C(=O)O | – | 505 | 19 µL/min/1e6 cells | 2.8 nM | 433 | 78 nM | 51 µL/min/1e6 cells | – | – | – | – | – | – | –
5 | C[C@@H](C1CC1)N1Cc2cc(-c3cnc4[nH]cc(-c5cnn(C)c5)c4c3)cc(C#N)c2C1=O | – | 244 | – | 3.7 nM | 1060 | 170 nM | – | – | – | – | – | – | – | –
6 | Cc1cc(-c2cnc3[nH]cc(-c4ccnc(N)c4)c3c2)cc2c1C(=O)N([C@@H](C)C1CC1)C2 | – | 640 | – | 5.8 nM | 214 | 400 nM | – | – | – | – | – | – | – | –
7 | Cc1cc(-c2cnc3[nH]cc(-c4ccncc4)c3c2)cc2c1C(=O)N([C@@H](C)C1CC1)C2 | – | 290 | – | 3.4 nM | 379 | 220 nM | – | – | – | 300 nM | 300 nM | 2000 nM | < 100 nM | 700 nM
8 | Cc1cc(-c2cnc3[nH]cc(-c4ccncc4)c3c2)cc2c1C(=O)N([C@@H](C)c1ccc(F)cc1)C2 | – | > 190 | – | 40 nM | 142 | 2100 nM | – | – | – | – | – | – | – | –
9 | Cc1cc(-c2cnc3[nH]cc(C(=O)NC4CCOCC4)c3c2)cc2c1C(=O)N([C@@H](C)C1CC1)C2 | – | 1030 | – | 4.5 nM | > 2240 | 320 nM | – | – | – | – | – | – | – | –
10 | CNS(=O)(=O)c1cc(-c2cnc3[nH]cc(-c4cnn(C)c4)c3c2)cc2c1C(=O)N([C@@H](C)C1CC1)C2 | – | 101 | – | 4 nM | > 4160 | 70 nM | – | – | – | – | – | – | – | –
11 | COC[C@H](C)N1Cc2cc(-c3cnc4[nH]cc(-c5ccncc5)c4c3)cc(C)c2C1=O | – | 216 | – | 9 nM | 51 | 600 nM | – | – | – | – | – | – | – | –
12 | Cc1cc(-c2cnc3[nH]cc(-c4cccc(C(=O)O)c4)c3c2)cc2c1C(=O)N([C@@H](C)C1CC1)C2 | – | 772 | – | 2.7 nM | 321 | 110 nM | – | – | – | – | – | – | – | –
13 | CC[C@@H](C1CC1)N1Cc2cc(-c3cnc4[nH]cc(-c5ccncc5)c4c3)cc(C)c2C1=O | – | > 414 | – | 6 nM | 255 | 800 nM | – | – | – | – | – | – | – | –
14 | Cc1cc(-c2cnc3[nH]cc(-c4ccccc4C(=O)O)c3c2)cc2c1C(=O)N([C@@H](C)C1CC1)C2 | – | > 59 | – | 180 nM | > 59 | 15000 nM | – | – | – | – | – | – | – | –
15 | Cc1cc(-c2cnc3[nH]cc(-c4ccc(C5(C(=O)O)CC5)cc4)c3c2)cc2c1C(=O)N([C@@H](C)C1CC1)C2 | 30 mL/min/kg | 1400 | 1.7 µL/min/1e6 cells | 3.3 nM | 863 | 150 nM | 16 µL/min/1e6 cells | – | – | – | – | – | – | –
16 | C[C@@H](C1CC1)N1Cc2cc(-c3cnc4[nH]cc(-c5cnn(C)c5)c4c3)cc(NS(C)(=O)=O)c2C1=O | – | 615 | – | 4 nM | 449 | 150 nM | – | – | – | – | – | – | – | –

Stronger by IC50 [4], values ahead:

Row | clearance [1] | Selectivity ratio (Homo sapiens [2]) | CLH [3] | IC50 [4] | Selectivity ratio (Homo sapiens [5]) | IC50 [6] | CLH [7] | Papp [8] | efflux ratio [9] | IC50 (Cytochrome P450 2C9) | IC50 (Cytochrome P450 3A4) | IC50 (Cytochrome P450 2D6) | IC50 (Cytochrome P450 2C19) | IC50 (Cytochrome P450 1A2) | Structure (SMILES)
17 | – | 968 | 2.3 µL/min/1e6 cells | 2.1 nM | 835 | 180 nM | 27 µL/min/1e6 cells | – | – | – | – | – | – | – | Cc1cc(-c2cnc3[nH]cc(-c4ccc(C(C)(C)C(=O)O)cc4)c3c2)cc2c1C(=O)N([C@@H](C)C1CC1)C2
18 | – | 335 | < 1.2 µL/min/1e6 cells | 1.2 nM | 918 | 40 nM | 2 µL/min/1e6 cells | – | – | – | – | – | – | – | Cc1cc(-c2c[nH]c3ncc(-c4cc5c(c(C(F)(F)F)c4)C(=O)N([C@@H](C)C4CC4)C5)cc23)ccc1C(=O)O
19 | – | 872 | 6.9 µL/min/1e6 cells | 2.6 nM | 878 | 160 nM | 17 µL/min/1e6 cells | – | – | – | – | – | – | – | Cc1cc(-c2cnc3[nH]cc(-c4ccc(CC(=O)O)cc4)c3c2)cc2c1C(=O)N([C@@H](C)C1CC1)C2
20 | 115 mL/min/kg | 1210 | 20 µL/min/1e6 cells | 2.2 nM | 1520 | 90 nM | 46 µL/min/1e6 cells | – | – | – | – | – | – | – | Cc1cc(-c2c[nH]c3ncc(-c4cc(C)c5c(c4)CN([C@@H](C)C4CC4)C5=O)cc23)cc(C)c1C(=O)O
21 | 183 mL/min/kg | 136 | 24 µL/min/1e6 cells | 2.5 nM | 259 | 140 nM | 54 µL/min/1e6 cells | 1.07 ×10⁻⁶ cm/s | 46.6 | – | – | – | – | – | Cc1cc(-c2cnc3[nH]cc(-c4ccc(C(=O)O)cc4)c3c2)cc2c1C(=O)N([C@@H](C)C1CC1)C2
22 | – | 591 | – | 1.64 nM | 380 | 350 nM | – | – | – | – | – | – | – | – | Cc1cc(-c2cnc3[nH]cc(-c4ccc(C(=O)O)c(C(F)(F)F)c4)c3c2)cc2c1C(=O)N([C@@H](C)C1CC1)C2
23 | – | 494 | – | 1.5 nM | 369 | 170 nM | – | – | – | – | – | – | – | – | COc1cc(-c2c[nH]c3ncc(-c4cc(C)c5c(c4)CN([C@@H](C)C4CC4)C5=O)cc23)ccc1C(=O)O

Reference: ChEMBL document CHEMBL4725475, “Discovery of Potent and Selective 7-Azaindole Isoindolinone-Based PI3Kγ Inhibitors” (ACS Med Chem Lett, 2020)
